According to PubChem BioAssay AID1259407 (Chemical Carcinogenesis Research Information System (CCRIS), 2018):
Active and inactive are the calls of the source. No rule for the calls is given here.

System: CCRIS mutagenicity, Ames/micronucleus/aberration tests
Assay: CCRIS mutagenicity studies
[1] = Test System: AMES SALMONELLA TYPHIMURIUM, Strain/Indicator: TA100, Metabolic Activation: NONE, Method: STANDARD PLATE

## O=C1c2ccccc2C(=O)c2ccccc21
End Point: IN VIVO MICRONUCLEUS, Test System: BONE MARROW POLYCHROMATIC ERYTHROCYTES, Species: MOUSE, Strain/Sex: B6C3F1/MALE, Route: IP INJECTION IN CORN OIL
  mutagenic call: inactive; negative
End Point: IN VIVO MICRONUCLEUS, Test System: PERIPHERAL BLOOD ERYTHROCYTES, Species: MOUSE, Strain/Sex: B6C3F1/MALE, FEMALE, Route: DIET
  mutagenic call: active; positive (at highest dose); (99.8% pure)
Test System: AMES SALMONELLA TYPHIMURIUM, Strain/Indicator: TA97, Metabolic Activation: NONE, Method: STANDARD PLATE
  mutagenic call: inactive; negative
Test System: AMES SALMONELLA TYPHIMURIUM, Strain/Indicator: TA97, Metabolic Activation: RAT, LIVER, S-9, PCB, Method: STANDARD PLATE
  mutagenic call: inactive; negative
Test System: AMES SALMONELLA TYPHIMURIUM, Strain/Indicator: TA98, Metabolic Activation: HAMSTER, LIVER, S-9, AROCLOR 1254, Method: STANDARD PLATE
  mutagenic call: inactive; negative
Test System: AMES SALMONELLA TYPHIMURIUM, Strain/Indicator: TA98, Metabolic Activation: NONE, Method: STANDARD PLATE
  mutagenic call: inactive; negative
Test System: AMES SALMONELLA TYPHIMURIUM, Strain/Indicator: TA98, Metabolic Activation: RAT LIVER S-9, AROCLOR, Method: STANDARD PLATE
  mutagenic call: inactive; negative
Test System: AMES SALMONELLA TYPHIMURIUM, Strain/Indicator: TA98, Metabolic Activation: RAT LIVER S-9, PHENOBARBITAL AND BETA-NAPHTHOFLAVONE (30%), Method: PREINCUBATION
  mutagenic call: inactive; negative
Test System: AMES SALMONELLA TYPHIMURIUM, Strain/Indicator: TA98, Metabolic Activation: RAT LIVER S-9, PHENOBARBITAL AND BETA-NAPHTHOFLAVONE, Method: PREINCUBATION
  mutagenic call: inactive; negative
Test System: AMES SALMONELLA TYPHIMURIUM, Strain/Indicator: TA98, Metabolic Activation: RAT, LIVER S-9, AROCLOR 1254 (10%, 30%), Method: PREINCUBATION
  mutagenic call: inactive; negative; 99.8% pure
Test System: AMES SALMONELLA TYPHIMURIUM, Strain/Indicator: TA98, Metabolic Activation: RAT, LIVER, S-9, AROCLOR 1254, Method: STANDARD PLATE
  mutagenic call: inactive; negative
Test System: AMES SALMONELLA TYPHIMURIUM, Strain/Indicator: TA98, Metabolic Activation: RAT, LIVER, S-9, PCB, Method: STANDARD PLATE
  mutagenic call: inactive; negative
Test System: AMES SALMONELLA TYPHIMURIUM, Strain/Indicator: TA100, Metabolic Activation: HAMSTER, LIVER, S-9, AROCLOR 1254, Method: STANDARD PLATE
  mutagenic call: inactive; negative
[1]
  mutagenic call: inactive; negative
Test System: AMES SALMONELLA TYPHIMURIUM, Strain/Indicator: TA100, Metabolic Activation: RAT LIVER S-9, AROCLOR, Method: STANDARD PLATE
  mutagenic call: inactive; negative
Test System: AMES SALMONELLA TYPHIMURIUM, Strain/Indicator: TA100, Metabolic Activation: RAT LIVER S-9, PHENOBARBITAL AND BETA-NAPHTHOFLAVONE (30%), Method: PREINCUBATION
  mutagenic call: inactive; negative
Test System: AMES SALMONELLA TYPHIMURIUM, Strain/Indicator: TA100, Metabolic Activation: RAT LIVER S-9, PHENOBARBITAL AND BETA-NAPHTHOFLAVONE, Method: PREINCUBATION
  mutagenic call: inactive; negative
Test System: AMES SALMONELLA TYPHIMURIUM, Strain/Indicator: TA100, Metabolic Activation: RAT, LIVER S-9, AROCLOR 1254 (10%, 30%), Method: PREINCUBATION
  mutagenic call: inactive; negative; 99.8% pure
Test System: AMES SALMONELLA TYPHIMURIUM, Strain/Indicator: TA100, Metabolic Activation: RAT, LIVER, S-9, AROCLOR 1254, Method: STANDARD PLATE
  mutagenic call: inactive; negative
Test System: AMES SALMONELLA TYPHIMURIUM, Strain/Indicator: TA100, Metabolic Activation: RAT, LIVER, S-9, PCB, Method: STANDARD PLATE
  mutagenic call: inactive; negative
Test System: AMES SALMONELLA TYPHIMURIUM, Strain/Indicator: TA102, Metabolic Activation: NONE, Method: PREINCUBATION
  mutagenic call: inactive; negative; 100% pure
Test System: AMES SALMONELLA TYPHIMURIUM, Strain/Indicator: TA102, Metabolic Activation: RAT, LIVER, S-9, AROCLOR 1254 (10%), Method: PREINCUBATION
  mutagenic call: inactive; negative; 100% pure
Test System: AMES SALMONELLA TYPHIMURIUM, Strain/Indicator: TA102, Metabolic Activation: RAT, LIVER, S-9, AROCLOR 1254, Method: STANDARD PLATE
  mutagenic call: inactive; negative
Test System: AMES SALMONELLA TYPHIMURIUM, Strain/Indicator: TA1535, Metabolic Activation: HAMSTER, LIVER, S-9, AROCLOR 1254, Method: STANDARD PLATE
  mutagenic call: inactive; negative
Test System: AMES SALMONELLA TYPHIMURIUM, Strain/Indicator: TA1535, Metabolic Activation: NONE, Method: PREINCUBATION
  mutagenic call: inactive; negative
Test System: AMES SALMONELLA TYPHIMURIUM, Strain/Indicator: TA1535, Metabolic Activation: NONE, Method: STANDARD PLATE
  mutagenic call: inactive; negative
Test System: AMES SALMONELLA TYPHIMURIUM, Strain/Indicator: TA1535, Metabolic Activation: RAT LIVER S-9, AROCLOR, Method: STANDARD PLATE
  mutagenic call: inactive; negative
Test System: AMES SALMONELLA TYPHIMURIUM, Strain/Indicator: TA1535, Metabolic Activation: RAT LIVER S-9, PHENOBARBITAL AND BETA-NAPHTHOFLAVONE (30%), Method: PREINCUBATION
  mutagenic call: inactive; negative
Test System: AMES SALMONELLA TYPHIMURIUM, Strain/Indicator: TA1535, Metabolic Activation: RAT LIVER S-9, PHENOBARBITAL AND BETA-NAPHTHOFLAVONE, Method: PREINCUBATION
  mutagenic call: inactive; negative
Test System: AMES SALMONELLA TYPHIMURIUM, Strain/Indicator: TA1535, Metabolic Activation: RAT, LIVER, S-9, AROCLOR 1254, Method: STANDARD PLATE
  mutagenic call: inactive; negative
Test System: AMES SALMONELLA TYPHIMURIUM, Strain/Indicator: TA1537, Metabolic Activation: HAMSTER, LIVER, S-9, AROCLOR 1254, Method: STANDARD PLATE
  mutagenic call: inactive; negative
Test System: AMES SALMONELLA TYPHIMURIUM, Strain/Indicator: TA1537, Metabolic Activation: NONE, Method: STANDARD PLATE
  mutagenic call: inactive; negative
Test System: AMES SALMONELLA TYPHIMURIUM, Strain/Indicator: TA1537, Metabolic Activation: RAT LIVER S-9, AROCLOR, Method: STANDARD PLATE
  mutagenic call: inactive; negative
Test System: AMES SALMONELLA TYPHIMURIUM, Strain/Indicator: TA1537, Metabolic Activation: RAT LIVER S-9, PHENOBARBITAL AND BETA-NAPHTHOFLAVONE (30%), Method: PREINCUBATION
  mutagenic call: active; positive
Test System: AMES SALMONELLA TYPHIMURIUM, Strain/Indicator: TA1537, Metabolic Activation: RAT LIVER S-9, PHENOBARBITAL AND BETA-NAPHTHOFLAVONE, Method: PREINCUBATION
  mutagenic call: inactive; negative
Test System: AMES SALMONELLA TYPHIMURIUM, Strain/Indicator: TA1537, Metabolic Activation: RAT, LIVER S-9, AROCLOR 1254 (10%, 30%), Method: PREINCUBATION
  mutagenic call: inactive; negative; 99.8% pure
Test System: AMES SALMONELLA TYPHIMURIUM, Strain/Indicator: TA1537, Metabolic Activation: RAT, LIVER, S-9, AROCLOR 1254, Method: STANDARD PLATE
  mutagenic call: inactive; negative
Test System: E. COLI, Strain/Indicator: WP2 UVRA, Metabolic Activation: NONE, Method: STANDARD PLATE
  mutagenic call: inactive; negative
Test System: E. COLI, Strain/Indicator: WP2 UVRA, Metabolic Activation: RAT LIVER S-9, AROCLOR, Method: STANDARD PLATE
  mutagenic call: inactive; negative
Test System: E.COLI, Strain/Indicator: WP2UVRA, Metabolic Activation: NONE, Method: PREINCUBATION
  mutagenic call: inactive; negative
Test System: E.COLI, Strain/Indicator: WP2UVRA, Metabolic Activation: RAT LIVER S-9, PHENOBARBITAL AND BETA-NAPHTHOFLAVONE (30%), Method: PREINCUBATION
  mutagenic call: inactive; negative
Test System: E.COLI, Strain/Indicator: WP2UVRA, Metabolic Activation: RAT LIVER S-9, PHENOBARBITAL AND BETA-NAPHTHOFLAVONE, Method: PREINCUBATION
  mutagenic call: inactive; negative
Test System: MOUSE LYMPHOMA, Strain/Indicator: L5178Y (TK+/TK-), Metabolic Activation: NONE, Method: SUSPENSION/PLATE
  mutagenic call: inactive; negative
Test System: MOUSE LYMPHOMA, Strain/Indicator: L5178Y (TK+/TK-), Metabolic Activation: RAT LIVER S-9, AROCLOR, Method: SUSPENSION/PLATE
  mutagenic call: inactive; negative

## C1CC[CH]([Sn]([CH]2CCCCC2)[CH]2CCCCC2)CC1
Test System: UDS HUMAN PERIPHERAL BLOOD LYMPHOCYTES, Strain/Indicator: THY INCORP, Metabolic Activation: NONE, Method: LIQUID SCINTILLATION
  mutagenic call: inactive; negative
Test System: UDS HUMAN PERIPHERAL BLOOD LYMPHOCYTES, Strain/Indicator: THY INCORP, Metabolic Activation: RAT, LIVER, S-9, PHENOBARBITAL AND BETA-NAPHTHOFLAVONE, Method: LIQUID SCINTILLATION
  mutagenic call: inactive; negative

## C#CC(OC(=O)NC1CCCCC1)(c1ccccc1)c1ccccc1
[1]
  mutagenic call: active; positive
